Experimental findings from patent US8791132B2, “Compounds and methods for treatment of hypertension” (Medivation Technologies, Inc., priority 2011, dated 2014) are described below.

As usually defined, the Ki is the equilibrium dissociation constant of an inhibitor or competing ligand from its target. One may read the inhibition as the change of the read-out against control, counted positive when it falls.

In experiment [1] the target is T1, human recombinant adrenergic α2B receptor (Homo sapiens, UniProt P18089).
T1 construct: expressed in transfected cells; host or cells: CHO-K1
T1 sequence (P18089 1-450): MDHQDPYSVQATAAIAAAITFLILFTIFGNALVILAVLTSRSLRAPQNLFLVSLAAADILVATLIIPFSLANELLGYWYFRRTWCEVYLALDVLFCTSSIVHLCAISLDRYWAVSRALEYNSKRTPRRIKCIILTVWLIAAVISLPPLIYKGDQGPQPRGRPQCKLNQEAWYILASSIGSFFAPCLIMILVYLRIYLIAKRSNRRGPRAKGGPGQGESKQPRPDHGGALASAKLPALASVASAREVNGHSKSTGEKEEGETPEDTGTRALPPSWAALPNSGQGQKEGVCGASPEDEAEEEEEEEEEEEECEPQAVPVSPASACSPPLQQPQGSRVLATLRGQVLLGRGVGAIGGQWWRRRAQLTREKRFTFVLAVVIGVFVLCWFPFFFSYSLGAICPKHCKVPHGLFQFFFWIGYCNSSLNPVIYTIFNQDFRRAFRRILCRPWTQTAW
Briefly: Radioligand binding, adrenergic α2B ([3H]Rauwolscine). The note with it: for Percentage inhibition of ligand binding, Adrenergic α2B (0.1 μM): compound at 0.1 μM; for Ki: read-out: Ki α2B; for inhibition at 0.03 µM: read-out: Percentage inhibition of ligand binding, Adrenergic α2B (0.03 μM), compound at 0.03 μM; for inhibition at 0.1 µM: read-out: Percentage inhibition of ligand binding, Adrenergic α2B (0.1 μM), compound at 0.1 μM. An outline of the steps: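 Assay used CHO-K1-expressed human α2B receptor in Tris-HCl pH 7.4 buffer with MgCl2, EDTA and BSA; 60 min incubation at 25 °C.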

Experiment [2] has as its target T2, human recombinant adrenergic α2A receptor (Homo sapiens, UniProt P08913).
T2 construct: expressed in transfected cells; host or cells: insect Sf9 cells
T2 sequence (P08913 1-465): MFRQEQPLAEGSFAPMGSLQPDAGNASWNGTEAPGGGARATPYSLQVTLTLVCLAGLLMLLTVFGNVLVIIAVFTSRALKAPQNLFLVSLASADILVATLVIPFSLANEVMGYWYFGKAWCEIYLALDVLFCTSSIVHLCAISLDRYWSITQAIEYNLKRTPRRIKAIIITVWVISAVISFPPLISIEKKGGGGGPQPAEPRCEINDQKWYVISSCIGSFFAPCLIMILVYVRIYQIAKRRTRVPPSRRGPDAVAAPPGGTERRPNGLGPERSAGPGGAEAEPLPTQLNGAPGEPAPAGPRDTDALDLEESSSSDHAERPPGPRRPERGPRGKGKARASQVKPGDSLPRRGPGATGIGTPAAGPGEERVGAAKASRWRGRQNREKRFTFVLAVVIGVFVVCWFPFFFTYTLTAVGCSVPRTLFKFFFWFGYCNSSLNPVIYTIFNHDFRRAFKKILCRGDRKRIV
Briefly: Radioligand binding, adrenergic α2A ([3H]MK-912). The following applies: for Percentage inhibition of ligand binding, Adrenergic α2A (0.1 μM): compound at 0.1 μM; for Percentage inhibition of ligand binding, Adrenergic α2A (0.1 μM) / inhibition at 0.03 µM / inhibition at 0.1 µM: [3H]MK-912, repeat datapoints each shown; for inhibition at 0.03 µM: read-out: Percentage inhibition of ligand binding, Adrenergic α2A (0.03 μM), compound at 0.03 μM; for inhibition at 0.1 µM: read-out: Percentage inhibition of ligand binding, Adrenergic α2A (0.1 μM), compound at 0.1 μM. An outline of the steps:
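Receptor expressed in insect Sf9 cells, assayed in 50 mM Tris-HCl pH 7.4 with 12.5 mM MgCl2 and 2 mM EDTA. Compounds incubated with 1 nM [3H]MK-912 for 60 min at 25 °C; nonspecific binding defined with 10 μM WB-4101. Filter-bound radioactivity counted; values are percent inhibition of specific binding.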

The target of experiment [3] is T3, human recombinant adrenergic α1D receptor (Homo sapiens, UniProt P25100).
T3 construct: expressed in transfected cells; host or cells: HEK-293
T3 sequence (P25100 1-572): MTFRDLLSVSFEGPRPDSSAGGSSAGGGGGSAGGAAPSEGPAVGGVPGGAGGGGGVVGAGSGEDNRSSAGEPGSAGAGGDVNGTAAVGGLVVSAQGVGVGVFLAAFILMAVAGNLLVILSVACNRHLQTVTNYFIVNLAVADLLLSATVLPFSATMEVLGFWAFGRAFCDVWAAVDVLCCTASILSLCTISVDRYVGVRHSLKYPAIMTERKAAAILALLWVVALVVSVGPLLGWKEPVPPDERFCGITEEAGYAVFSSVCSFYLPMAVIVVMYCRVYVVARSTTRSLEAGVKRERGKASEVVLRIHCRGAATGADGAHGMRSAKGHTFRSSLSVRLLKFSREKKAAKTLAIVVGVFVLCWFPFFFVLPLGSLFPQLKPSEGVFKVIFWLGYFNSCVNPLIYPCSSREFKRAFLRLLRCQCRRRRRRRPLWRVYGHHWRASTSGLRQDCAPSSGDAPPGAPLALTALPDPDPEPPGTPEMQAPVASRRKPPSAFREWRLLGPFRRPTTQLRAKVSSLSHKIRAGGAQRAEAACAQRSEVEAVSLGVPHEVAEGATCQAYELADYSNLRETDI
The experiment in a line: Radioligand binding, adrenergic α1D ([3H]Prazosin). The note with it: [3H]Prazosin, repeat datapoints each shown; for Percentage inhibition of ligand binding, Adrenergic α1D (0.1 μM): compound at 0.1 μM; for inhibition at 0.1 µM: read-out: Percentage inhibition of ligand binding, Adrenergic α1D (0.1 μM), compound at 0.1 μM. The procedure: Compounds were incubated with 0.6 nM [3H]Prazosin for 60 min at 25° C. Non-specific binding was estimated in the presence of 10 μM phentolamine. Receptor proteins were filtered and washed, the filters were then counted to determine [3H]Prazosin specifically bound. […] Biochemical assay results are presented as the percent inhibition of specific binding in Table B1.

Where [4] appears, read: [3H]Rauwolscine, repeat datapoints each shown.

Several values for one entry are separate records, joined by “and”; a condition that tells them apart may be missing. Identical values can stand only once.

On to `C/C(=C\n1c2c(c3cc(C)ccc31)CN(C)CC2)c1ccc(C)nc1` [compound 186], for which, in experiment [1] (compound at 0.03 μM, [3H]Rauwolscine, repeat datapoints each shown, 0.03 µM), the “Percentage inhibition of ligand binding, Adrenergic α2B (0.03 μM)” value is reported as 97%. Also, in experiment [1] (setting [4]), the “Percentage inhibition of ligand binding, Adrenergic α2B (0.1 μM)” value came out at 101%; the inhibition at 0.03 µM is 94%; the inhibition at 0.1 µM is 100%. In addition, the Ki in experiment [1] came to 0.52 nM. Also, in experiment [2], the Ki was determined as 11 nM; the “Percentage inhibition of ligand binding, Adrenergic α2A (0.1 μM)” value turned out to be 72%; the inhibition at 0.03 µM is 53%; the inhibition at 0.1 µM is 54%. Further, in experiment [3], the “Percentage inhibition of ligand binding, Adrenergic α1D (0.1 μM)” value worked out at 55% and the inhibition at 0.1 µM came out at 51%. Moreover, in experiment [3] (read-out: Percentage inhibition of ligand binding, Adrenergic α1D (0.03 μM), compound at 0.03 μM), the inhibition at 0.03 µM amounted to 31%.
`COc1ccc(/C(C)=C/n2c3c(c4cc(Cl)ccc42)CCN(C)CC3)cc1F` [compound 240]: in experiment [1] (setting [4]), the “Percentage inhibition of ligand binding, Adrenergic α2B (0.1 μM)” value is 97% and the inhibition at 0.1 µM stood at 83%. For the same molecule, in experiment [2], the “Percentage inhibition of ligand binding, Adrenergic α2A (0.1 μM)” value stood at 87% and the inhibition at 0.1 µM was determined as 82%. Further, in experiment [3], the “Percentage inhibition of ligand binding, Adrenergic α1D (0.1 μM)” value was 47% and the inhibition at 0.1 µM is 44%.
As for `C/C(=C\n1c2c(c3cc(C)ccc31)CN(C)CC2)c1cnc(N(C)C)nc1` [compound 187], in experiment [1] (setting [4]), the “Percentage inhibition of ligand binding, Adrenergic α2B (0.1 μM)” value is listed as 98%; the inhibition at 0.03 µM was 78%; the inhibition at 0.1 µM was 84%. The Ki in experiment [1] was found to be 4.43 nM. For the same molecule, in experiment [2], the inhibitory constant (Ki) is 17.9 nM; the “Percentage inhibition of ligand binding, Adrenergic α2A (0.1 μM)” value is 63% and 84%; the inhibition at 0.03 µM amounted to 41%. Also, the inhibition at 0.1 µM in experiment [3] was 83%.
